Read-outs that look alike come from different tables or passages of the source.
How the values were obtained:
4T1 subcutaneous tumor = test: Ex vivo NIR fluorescence of tumor and major organs, 48 h; type: in vivo, mouse
Source text: (§1) After the intravenous administration of free Cy5.5, ^Cy5.5SAMIs, and ^Cy5.5PAC-SABIs, the mice were euthanized at the 48-h mark, and the heart, liver, spleen, lung, kidney, and tumor were harvested for ex vivo imaging (Fig. 5e, f). […] Despite the observed retention in metabolic organs such as the liver and kidney, distinct variations in tissue distribution were noted between ^Cy5.5SAMIs and ^Cy5.5PAC-SABIs (Fig. 5e, f and Supplementary Fig. 30). Specifically, ^Cy5.5PAC-SABIs achieved a marked selective enrichment in both BC and PC tumors. […] The discernible dissimilarity between these two molecules could be attributed to the presence of targeted ligands and EISA, which augmented the precise recognition of ^Cy5.5PAC-SABIs toward cancer cells and facilitated their proficient molecular assembly. To further observe the distribution of ^Cy5.5PAC-SABIs in the BC and PC tissues, we analyzed the Cy5.5 fluorescence of tumor sections. […] Moreover, we employed SEM imaging to visualize the in situ self-assembly morphology of PAC-SABIs.
(§2) To obtain breast and pancreatic subcutaneous xenografts, 1 × 10^6 4T1 or PAN02 cells were implanted into the right hind limb of BALB/c and C57BL/6 mice, respectively. When the tumor size reached ≈ 50 mm^3, mice were randomly sorted into free Cy5.5, ^Cy5.5SAMIs, and ^Cy5.5PAC-SABIs groups. The 4T1 and PAN02 tumor-bearing mice were correspondingly intravenously injected with free Cy5.5, ^Cy5.5SAMIs, and ^Cy5.5PAC-SABIs (the dose of Cy5.5 was 1 mg/kg) for in vivo fluorescence imaging with IVIS system (Perkin Elmer, USA). Then, the mice were sacrificed to collect the major organs (heart, liver, spleen, lung, and kidney) and tumors for ex vivo fluorescence imaging. Finally, the 4T1 and PAN02 tumors were embedded in Tissue-Tek OCT compound (Sakura, Japan), and cryosections of 8 µm thickness were prepared. The Cy5.5 signal was detected using a fluorescence microscope (Nikon, Japan).
(§3) Supplementary Fig. 30 Quantification analysis of the ex vivo NIR fluorescence intensity in tumors and major organs. a Quantitative calculation of average fluorescence signal in 4T1 tumor and major organ area. The error bars represent the mean ± SD (n = 3 mice; ****p < 0.0001; the p value was analyzed by a two-tailed unpaired Student’s t-test).b Quantitative calculation of average fluorescence signal in PAN02 tumor and major organ area. The error bars represent the mean ± SD (n = 3 mice; ****p < 0.0001; the p value was analyzed by a two-tailed unpaired Student’s t-test).Source data are provided as a Source Data file.
(§4) (1 picture or pasted object on this page, not shown here)

PAN02 subcutaneous tumor = type: in vivo, mouse
Source text: as §1, §2, §3, §4

## cyanine 5.5 [free Cy5.5]
4T1 subcutaneous tumor; 4T1 and PAN02 tumor-bearing mice, 48 h after i.v. injection, tumors and major organs
  ex vivo NIR fluorescence accumulation: negligible accumulation in the tumors and major organs
4T1 subcutaneous tumor; 4T1 tumor, replicate 1
  Average radiant efficiency: 0.156 × 10^3 P/Sec
4T1 subcutaneous tumor; 4T1 tumor, replicate 2
  Average radiant efficiency: 0.054 × 10^3 P/Sec
4T1 subcutaneous tumor; 4T1 tumor, replicate 3
  Average radiant efficiency: 0.174 × 10^3 P/Sec
4T1 subcutaneous tumor; Heart, 4T1 model, replicate 1
  Average radiant efficiency: 0.085 × 10^3 P/Sec
4T1 subcutaneous tumor; Heart, 4T1 model, replicate 2
  Average radiant efficiency: 0.174 × 10^3 P/Sec
4T1 subcutaneous tumor; Heart, 4T1 model, replicate 3
  Average radiant efficiency: 0.168 × 10^3 P/Sec
4T1 subcutaneous tumor; Kidney, 4T1 model, replicate 1
  Average radiant efficiency: 0.115 × 10^3 P/Sec
4T1 subcutaneous tumor; Kidney, 4T1 model, replicate 2
  Average radiant efficiency: 0.12 × 10^3 P/Sec
4T1 subcutaneous tumor; Kidney, 4T1 model, replicate 3
  Average radiant efficiency: 0.073 × 10^3 P/Sec
4T1 subcutaneous tumor; Liver, 4T1 model, replicate 1
  Average radiant efficiency: 0.118 × 10^3 P/Sec
4T1 subcutaneous tumor; Liver, 4T1 model, replicate 2
  Average radiant efficiency: 0.061 × 10^3 P/Sec
4T1 subcutaneous tumor; Liver, 4T1 model, replicate 3
  Average radiant efficiency: 0.22 × 10^3 P/Sec
4T1 subcutaneous tumor; Lung, 4T1 model, replicate 1
  Average radiant efficiency: 0.137 × 10^3 P/Sec
4T1 subcutaneous tumor; Lung, 4T1 model, replicate 2
  Average radiant efficiency: 0.09 × 10^3 P/Sec
4T1 subcutaneous tumor; Lung, 4T1 model, replicate 3
  Average radiant efficiency: 0.095 × 10^3 P/Sec
4T1 subcutaneous tumor; Spleen, 4T1 model, replicate 1
  Average radiant efficiency: 0.157 × 10^3 P/Sec
4T1 subcutaneous tumor; Spleen, 4T1 model, replicate 2
  Average radiant efficiency: 0.112 × 10^3 P/Sec
4T1 subcutaneous tumor; Spleen, 4T1 model, replicate 3
  Average radiant efficiency: 0.069 × 10^3 P/Sec
PAN02 subcutaneous tumor; Heart, PAN02 model, replicate 1
  Average radiant efficiency: 0.069 × 10^3 P/Sec
PAN02 subcutaneous tumor; Heart, PAN02 model, replicate 2
  Average radiant efficiency: 0.108 × 10^3 P/Sec
PAN02 subcutaneous tumor; Heart, PAN02 model, replicate 3
  Average radiant efficiency: 0.122 × 10^3 P/Sec
PAN02 subcutaneous tumor; Kidney, PAN02 model, replicate 1
  Average radiant efficiency: 0.064 × 10^3 P/Sec
PAN02 subcutaneous tumor; Kidney, PAN02 model, replicate 2
  Average radiant efficiency: 0.137 × 10^3 P/Sec
PAN02 subcutaneous tumor; Kidney, PAN02 model, replicate 3
  Average radiant efficiency: 0.152 × 10^3 P/Sec
PAN02 subcutaneous tumor; Liver, PAN02 model, replicate 1
  Average radiant efficiency: 0.094 × 10^3 P/Sec
PAN02 subcutaneous tumor; Liver, PAN02 model, replicate 2
  Average radiant efficiency: 0.126 × 10^3 P/Sec
PAN02 subcutaneous tumor; Liver, PAN02 model, replicate 3
  Average radiant efficiency: 0.145 × 10^3 P/Sec
PAN02 subcutaneous tumor; Lung, PAN02 model, replicate 1
  Average radiant efficiency: 0.056 × 10^3 P/Sec
PAN02 subcutaneous tumor; Lung, PAN02 model, replicate 2
  Average radiant efficiency: 0.103 × 10^3 P/Sec
PAN02 subcutaneous tumor; Lung, PAN02 model, replicate 3
  Average radiant efficiency: 0.159 × 10^3 P/Sec
PAN02 subcutaneous tumor; PAN02 tumor, replicate 1
  Average radiant efficiency: 0.125 × 10^3 P/Sec
PAN02 subcutaneous tumor; PAN02 tumor, replicate 2
  Average radiant efficiency: 0.056 × 10^3 P/Sec
PAN02 subcutaneous tumor; PAN02 tumor, replicate 3
  Average radiant efficiency: 0.141 × 10^3 P/Sec
PAN02 subcutaneous tumor; Spleen, PAN02 model, replicate 1
  Average radiant efficiency: 0.046 × 10^3 P/Sec
PAN02 subcutaneous tumor; Spleen, PAN02 model, replicate 2
  Average radiant efficiency: 0.093 × 10^3 P/Sec
PAN02 subcutaneous tumor; Spleen, PAN02 model, replicate 3
  Average radiant efficiency: 0.157 × 10^3 P/Sec
